Experiment: Inhibition of Escherichia coli murB-mediated eduction of enolpyruvyl uridine diphosphate N-acetylglucosamine to uridine diphosphate N-acetyl muramic acid
With `O=C(c1c(O)n(-c2ccc(Cl)cc2)n(-c2ccc(Cl)cc2)c1=O)C1CCCCC1` the pIC50 was 4.62.
`COc1ccc(C(=O)c2c(O)n(-c3ccc(Cl)cc3)n(-c3ccc(Cl)cc3)c2=O)cc1` showed a pIC50 of 4.796.
For `O=C(c1ccc(Cl)cc1)c1c(O)n(-c2ccc(Cl)cc2)n(-c2ccc(Cl)cc2)c1=O`, the pIC50 was 4.863.
`O=C(c1ccc(C(F)(F)F)cc1)c1c(O)n(-c2ccc(Cl)cc2)n(-c2ccc(Cl)cc2)c1=O` gave a pIC50 of 4.824.
`O=C(Nc1ccc(C(F)(F)F)cc1)c1c(O)n(-c2cccc(Cl)c2)n(-c2cccc(Cl)c2)c1=O` gave a pIC50 of 5.061.
With `O=C(Nc1ccccc1)c1c(O)n(-c2ccccc2)n(-c2ccccc2)c1=O` the pIC50 was 4.268.
Compound `O=C(Nc1ccc(Cl)c(Cl)c1)c1c(O)n(-c2ccc(Cl)c(Cl)c2)n(-c2ccc(Cl)c(Cl)c2)c1=O` has a pIC50 of 5.319.
Work on `O=C(Nc1ccc(Cl)cc1)c1c(O)n(-c2ccc(Cl)cc2)n(-c2ccc(Cl)cc2)c1=O` yielded a pIC50 of 4.959.
`O=C(Nc1ccc(Cl)c(Cl)c1)c1c(O)n(-c2ccc(Cl)cc2)n(-c2ccc(Cl)cc2)c1=O` gave a pIC50 of 4.886.
For `COc1ccc(NC(=O)c2c(O)n(-c3ccc(Cl)cc3)n(-c3ccc(Cl)cc3)c2=O)cc1`, the pIC50 was 5.
`CCCCOc1ccc(C(=O)c2c(O)n(-c3ccc(Cl)cc3)n(-c3ccc(Cl)cc3)c2=O)cc1` gave a pIC50 of 5.347.
For `O=C(c1ccc(OC(F)(F)F)cc1)c1c(O)n(-c2ccc(Cl)cc2)n(-c2ccc(Cl)cc2)c1=O`, the pIC50 was 5.268.
`O=C(c1ccc(-c2ccccc2)cc1)c1c(O)n(-c2ccc(Cl)cc2)n(-c2ccc(Cl)cc2)c1=O` showed a pIC50 of 5.215.
`O=C(c1cccs1)c1c(O)n(-c2ccc(Cl)cc2)n(-c2ccc(Cl)cc2)c1=O` gave a pIC50 of 5.237.
Compound `COc1ccc(CC(=O)c2c(O)n(-c3ccc(Cl)cc3)n(-c3ccc(Cl)cc3)c2=O)cc1` has a pIC50 of 4.398.
Compound `O=C(c1ccccc1)c1c(O)n(-c2ccc(Cl)cc2)n(-c2ccc(Cl)cc2)c1=O` has a pIC50 of 5.009.
In the case of `O=C(c1cccc(C(F)(F)F)c1)c1c(O)n(-c2ccc(Cl)cc2)n(-c2ccc(Cl)cc2)c1=O`, the pIC50 is reported as 5.26.
With `O=C(c1cccc(Cl)c1)c1c(O)n(-c2ccc(Cl)cc2)n(-c2ccc(Cl)cc2)c1=O` the pIC50 was 5.229.
Work on `O=C(c1ccccc1Cl)c1c(O)n(-c2ccc(Cl)cc2)n(-c2ccc(Cl)cc2)c1=O` yielded a pIC50 of 4.914.
Compound `N#Cc1ccc(C(=O)c2c(O)n(-c3ccc(Cl)cc3)n(-c3ccc(Cl)cc3)c2=O)cc1` has a pIC50 of 4.882.
Work on `CCOC(=O)c1cccc(C(=O)c2c(O)n(-c3ccc(Cl)cc3)n(-c3ccc(Cl)cc3)c2=O)c1` yielded a pIC50 of 4.754.
Work on `O=C(c1ccc(O)cc1)c1c(O)n(-c2ccc(Cl)cc2)n(-c2ccc(Cl)cc2)c1=O` yielded a pIC50 of 4.66.
For `O=C(CCc1ccccc1)c1c(O)n(-c2ccc(Cl)cc2)n(-c2ccc(Cl)cc2)c1=O`, the pIC50 was 5.018.
`CC(C(=O)c1c(O)n(-c2ccc(Cl)cc2)n(-c2ccc(Cl)cc2)c1=O)c1ccc(Br)cc1` (stereo not drawn) gave a pIC50 of 5.252.
`O=C(Nc1ccc(Cl)cc1)c1c(O)n(-c2ccccc2)n(-c2ccccc2)c1=O` showed a pIC50 of 4.268.
For `O=C(Nc1ccc(Cl)cc1)c1c(O)n(-c2cccc(Cl)c2)n(-c2cccc(Cl)c2)c1=O`, the pIC50 was 5.066.
Work on `Cc1ccc(NC(=O)c2c(O)n(-c3ccc(Cl)c(Cl)c3)n(-c3ccc(Cl)c(Cl)c3)c2=O)cc1` yielded a pIC50 of 5.319.
Work on `O=C(Nc1ccc(Br)cc1)c1c(O)n(-c2ccccc2)n(-c2ccccc2)c1=O` yielded a pIC50 of 4.377.

— ChEMBL document CHEMBL3044812, “QSAR analysis of Mur B inhibitors with antibacterial properties discussing role of physico-chemical parameters” (Med Chem Res, 2011)
